These results are taken from ChEMBL document CHEMBL1141481, “Probing the structural and topological requirements for CCR2 antagonism: holographic QSAR for indolopiperidine derivatives” (Bioorg Med Chem Lett, 2008).

pKi: −log10 of the molar value. Several values for one entry are separate records, joined by “and”; a condition that tells them apart may be missing. Identical values can stand only once.

The target in this experiment is C-C chemokine receptor type 2 (Homo sapiens, UniProt P41597). Put plainly: Antagonist activity at human CCR2 receptor.
Chain of C-C chemokine receptor type 2 (P41597 whole entry): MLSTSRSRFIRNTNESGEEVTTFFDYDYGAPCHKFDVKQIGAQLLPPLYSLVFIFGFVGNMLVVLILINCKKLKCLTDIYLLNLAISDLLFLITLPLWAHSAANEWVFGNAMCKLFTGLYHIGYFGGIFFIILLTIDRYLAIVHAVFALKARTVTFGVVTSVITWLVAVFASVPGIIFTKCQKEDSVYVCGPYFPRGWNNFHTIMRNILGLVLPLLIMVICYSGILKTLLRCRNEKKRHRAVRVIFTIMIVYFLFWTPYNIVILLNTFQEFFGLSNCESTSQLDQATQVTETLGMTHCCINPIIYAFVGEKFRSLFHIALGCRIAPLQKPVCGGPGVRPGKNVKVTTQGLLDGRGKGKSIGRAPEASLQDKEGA
Broadly, the pKi is the negative decadic logarithm of the Ki, by convention in mol/L. The low end stands for a large Ki, the high end for a small Ki. Compound `O=C(/C=C/c1ccc(Br)cc1)NCCCCCN1CCC(c2c[nH]c3ccccc23)CC1` had a pKi of 6.45.

Regarding `O=C(NCCCCCN1CCC(c2c[nH]c3ccccc23)CC1)Nc1ccc(Cl)c(Cl)c1`, the pKi is 5.79.

Consider `Cc1ccc(/C=C/C(=O)NCCCCCN2CCC(c3c[nH]c4ccccc34)CC2)cc1`, for which the pKi was 6.25.

`CC(=O)Nc1ccc(/C=C/C(=O)NCCCCCN2CCC(c3c[nH]c4ccccc34)CC2)cc1` showed a pKi of 4.89.

The compound `CCCCc1ccc(/C=C/C(=O)NCCCCCN2CCC(c3c[nH]c4ccccc34)CC2)cc1` gave a pKi of 5.77.

`O=C(/C=C/c1ccc(Cl)c(Cl)c1)NCCCCCN1CCC(c2c[nH]c3ccccc23)CC1` showed a pKi of 6.37.

The compound `O=C(NCCCCCN1CCC(c2c[nH]c3ccccc23)CC1)c1ccc(-c2ccccc2)cc1` had a pKi of 5.26.

For the compound `O=C(/C=C/c1ccc(-c2ccccc2)cc1)NCCCCCN1CCC(c2c[nH]c3ccccc23)CC1`, the pKi was 5.83.

Compound `O=C(/C=C/c1ccc(I)cc1)NCCCCCN1CCC(c2c[nH]c3ccccc23)CC1` showed a pKi of 6.33.

On to `O=C(NCCCCCN1CCC(c2c[nH]c3ccccc23)CC1)c1ccc(Br)cc1`, for which the pKi is 5.14.

As to `O=C(/C=C/c1ccc(Cl)c(Cl)c1)N[C@H]1CC[C@H](CN2CCC(c3c[nH]c4ccccc34)CC2)CC1`, the pKi was 6.20 and 6.19.

For `O=C(Cc1ccc(Cl)c(Cl)c1)NCCCCCN1CCC(c2c[nH]c3ccccc23)CC1`, the pKi is 5.35.

The compound `O=C(/C=C/c1ccccc1Cl)NCCCCCN1CCC(c2c[nH]c3ccccc23)CC1` gave a negative-log Ki (pKi) of 5.35.
